Literature values, collected in patent publication US20070025918A1, “Magnetic resonance imaging (MRI) agents: water soluble carbon-13 enriched fullerene and carbon nanotubes for use with dynamic nuclear polarization” (General Electric Company, priority 2005, published 2007).

Key:
[1] = THF and acetone

solubility in water: virtually insoluble
solubility in organic solvents [1]: soluble
Substance: C60F60
